This passage reports MIC results from DBAASP.

Test systems include Pseudomonas aeruginosa; Escherichia coli; Staphylococcus aureus.
Assay in all cases: ≥ marks a high value that may be exact or a test limit, other limits are often not marked, values filed in µg/mL are converted to µM
Assay [1] concerns Staphylococcus epidermidis ATCC 12228.
The test system of assay [2] is Escherichia coli ATCC 25922.
In assay [3] the test system is Pseudomonas aeruginosa PAO1.

Converted amounts (≈) assume the structure as drawn.

The MIC is the least concentration at which growth counts as inhibited. Compound `CC(C)C[C@H](NC(=O)[C@H](CC(N)=O)NC(=O)[C@H](Cc1c[nH]c2ccccc12)NC(=O)[C@H](CCCN=C(N)N)NC(=O)[C@H](C)NC(=O)[C@H](CCCCN)NC(=O)[C@H](CCCCN)NC(=O)CNC(=O)[C@H](CC(C)C)NC(=O)[C@H](Cc1ccc(O)cc1)NC(=O)[C@H](Cc1ccc(O)cc1)NC(=O)CNC(=O)[C@H](Cc1c[nH]c2ccccc12)NC(=O)[C@H](CO)NC(=O)[C@H](CO)NC(=O)[C@H](Cc1c[nH]c2ccccc12)NC(=O)[C@H](CC(C)C)NC(=O)[C@H](CCCCN)NC(=O)[C@@H](NC(=O)[C@@H](NC(=O)[C@H](CC(C)C)NC(=O)[C@@H](N)CC(=O)O)[C@@H](C)O)[C@@H](C)O)C(=O)O` [DLTTKLWSSWGYYLGKKARWNL] came in with an MIC in assay [1] of 25 µM (≈ 67.2 µg/mL).

In turn, `CC[C@H](C)[C@H](NC(=O)[C@H](Cc1ccccc1)NC(=O)[C@H](CO)NC(=O)[C@H](CCCCN)NC(=O)[C@H](Cc1c[nH]c2ccccc12)NC(=O)[C@@H](N)CCCCN)C(=O)N[C@@H](CCCCN)C(=O)N[C@@H](CCCCN)C(=O)N[C@@H](CCCN=C(N)N)C(=O)N[C@H](C(=O)N[C@@H](CO)C(=O)N[C@@H](CCCCN)C(=O)N[C@@H](Cc1ccccc1)C(=O)N[C@@H](CC(C)C)C(=O)N[C@@H](Cc1cnc[nH]1)C(=O)N[C@@H](CO)C(=O)N[C@@H](C)C(=O)N[C@@H](CCCCN)C(=O)N[C@@H](CCCCN)C(=O)N[C@@H](Cc1ccccc1)C(N)=O)[C@@H](C)O` [KWKSFIKKRTSKFLHSAKKF] yielded an MIC in the assay with Pseudomonas aeruginosa of more than 20 µM.

Consider `CC[C@H](C)[C@H](NC(=O)[C@H](CCCN=C(N)N)NC(=O)[C@@H](NC(=O)[C@H](CCCN=C(N)N)NC(=O)[C@H](Cc1c[nH]c2ccccc12)NC(=O)[C@H](Cc1ccccc1)NC(=O)[C@H](Cc1ccccc1)NC(=O)[C@@H]1CCCN1)[C@@H](C)CC)C(=O)N[C@@H](CCCN=C(N)N)C(=O)N[C@@H](CCCN=C(N)N)C(N)=O` [PFFWRIRIRR], for which the minimum inhibitory concentration (MIC) in assay [2] and in assay [3] was 5.53 µM (≈ 7.99 µg/mL) throughout.

`CC[C@H](C)[C@H](NC(=O)CN)C(=O)NCC(=O)N[C@@H](CCCCN)C(=O)N[C@@H](Cc1ccccc1)C(=O)N[C@@H](CC(C)C)C(=O)N[C@@H](Cc1cnc[nH]1)C(=O)N[C@@H](CO)C(=O)N[C@@H](C)C(=O)N[C@@H](CCCCN)C(=O)N[C@@H](CCCCN)C(=O)N[C@@H](Cc1ccccc1)C(=O)NCC(=O)N[C@@H](CCCCN)C(=O)N[C@@H](C)C(=O)N[C@@H](Cc1c[nH]c2ccccc12)C(=O)N[C@H](C(=O)NCC(=O)N[C@@H](CCC(=O)O)C(=O)N[C@H](C(=O)N[C@@H](CCSC)C(=O)N[C@@H](CC(N)=O)C(=O)N[C@@H](CO)C(N)=O)[C@@H](C)CC)C(C)C` [GIGKFLHSAKKFGKAWVGEIMNS]: the MIC in the assay with Escherichia coli was 40 µM (≈ 100 µg/mL); with Pseudomonas aeruginosa it was 80 µM (≈ 200 µg/mL); in the assay on Staphylococcus aureus, more than 80 µM.

In the case of `CC(C)C[C@H](NC(=O)[C@H](C)NC(=O)[C@H](CCCCN)NC(=O)[C@H](Cc1c[nH]c2ccccc12)NC(=O)[C@H](CC(C)C)NC(=O)[C@H](CCCCN)NC(=O)[C@H](C)NC(=O)[C@H](CC(C)C)NC(=O)[C@H](C)NC(=O)[C@H](CCCCN)NC(=O)[C@H](C)NC(=O)[C@H](CC(C)C)NC(=O)[C@H](C)NC(=O)[C@@H](N)CCCCN)C(=O)N[C@@H](C)C(=O)N[C@@H](CCCCN)C(=O)N[C@@H](C)C(=O)N[C@@H](C)C(N)=O` [KALAKALAKLWKALAKAA], the minimal inhibitory concentration (MIC) was 6 µM (≈ 11.2 µg/mL) with Escherichia coli, 24 µM (≈ 44.8 µg/mL) in the assay on Pseudomonas aeruginosa and 1.5 µM (≈ 2.8 µg/mL) with Staphylococcus aureus.

Consider `CC[C@H](C)[C@H](NC(=O)CN)C(=O)N[C@@H](CCCCN)C(=O)N[C@@H](CCCCN)C(=O)N[C@@H](Cc1c[nH]c2ccccc12)C(=O)N[C@@H](CC(C)C)C(=O)N[C@@H](Cc1cnc[nH]1)C(=O)N[C@@H](CO)C(=O)N1CCC[C@H]1C(=O)N[C@@H](CCCCN)C(=O)N[C@@H](CCCCN)C(=O)N1CCC[C@H]1C(=O)NCC(=O)N[C@@H](CCCCN)C(=O)N[C@@H](CCCCN)C(=O)N[C@@H](Cc1ccccc1)C(=O)N[C@H](C(=O)N[C@@H](CCCCN)C(=O)N[C@@H](CCCCN)C(=O)N[C@H](C(=O)N[C@@H](CCSC)C(=O)N[C@@H](CC(N)=O)C(=O)N[C@@H](CO)C(N)=O)[C@@H](C)CC)C(C)C` [GIKKWLHSPKKPGKKFVKKIMNS], for which the MIC in assay [2] is more than 80 µM; in assay [1], 10 µM (≈ 26.8 µg/mL).
